Laboratory results taken from US11155539B2, “4-pyridinylmethyl-morpholine derivatives and the use thereof as medicament” (Boehringer Ingelheim International GmbH, priority 2018, dated 2021).

Experiments:
[1] = Metabolic stability in pooled human liver microsomes; type: in vitro ADME; settings: pH 7.6, 1 μM compound, 37° C., NADPH, read-out: Half-life - t½ human liver microsomes
Text: Stability in human liver microsomes refers to the susceptibility of compounds to biotransformation in the context of selecting and/or designing drugs with favorable pharmacokinetic properties. The primary site of metabolism for many drugs is the liver. Human liver microsomes contain the cytochrome P450s (CYPs), and thus represent a model system for studying drug metabolism in vitro Enhanced stability in human liver microsomes is associated with several advantages, including increased bioavailability and adequate half-life, which can enable lower and less frequent dosing of patients. Thus, enhanced stability in human liver microsomes is a favorable characteristic for compounds that are to be used for drugs.
The metabolic degradation of the test compound was assayed at 37° C. with pooled human liver microsomes. The final incubation volume of 60 μl per time point contains TRIS buffer pH 7.6 at room temperature (0.1 M), magnesium chloride (5 mM aqueous solution), microsomal protein (1 mg/mL for human) and the test compound at a final concentration of 1 μM. Following a short preincubation period at 37° C., the reactions were initiated by addition of betanicotinamide adenine dinucleotide phosphate, reduced form (NADPH, 1 mM), and terminated by transferring an aliquot into acetonitril after different time points. After centrifugation (10000 g, 5 min), an aliquot of the supernatant was assayed by HPLC-MS/MS as described above for the MDCK assay P-gp for the amount of parent compound. The half-life was determined by the slope of the semi-logarithmic plot of the concentration-time profile.

MDR1 (P-gp) = target: T1, MDR1 (P-gp) (Homo sapiens, UniProt P08183); experiment: MDCK assay P-gp (permeability across MDCK-MDR1 monolayers); type: in vitro ADME; settings: for Papp A→B at 2 h: apical-to-basal, MDCK-MDR1 monolayers, pH 7.4; for efflux ratio at 2 h: pH 7.4, Papp (b-a) divided by Papp (a-b), MDCK-MDR1, read-out: efflux ratio PEBA/PEAB
T1 construct: expressed in transfected cells; host or cells: MDCKII (Madin-Darby canine kidney)
Method: The MDCK assays provide information on the potential of a compound to pass the blood brain barrier. Permeability measurements across polarized, confluent MDCK-MDR1 cell monolayers grown on permeable filter supports are used as an in vitro absorption model: apparent permeability coefficients (PE) of the compounds across the MDCK-MDR1 cell monolayers are measured (pH 7.4, 37° C.) in apical-to-basal (AB) and basal-to-apical (BA) transport direction. The AB permeability (PEAB) represents drug absorption from the blood into the brain and the BA permeability (PEBA) drug efflux from the brain back into the blood via both, passive permeability as well as active transport mechanisms mediated by efflux and uptake transporters that are expressed on the MDCK-MDR1 cells, predominantly by the overexpressed human MDR1. Identical or similar permeabilities in both transport directions indicate passive permeation (PEBA/PEAB≤1), vectorial permeability points to additional active transport mechanisms. Higher PEBA than PEAB (PEBA/PEAB>5) indicates the involvement of active efflux mediated by MDR1, which might compromise the goal to achieve sufficient brain exposure. Therefore, this assay provides valuable support for selection of compounds applicable for further in vivo testing. High permeability not limited by efflux at the blood brain barrier is a favorable characteristic for compounds that are to be used for drugs acting primarily in the CNS.
Apparent permeability coefficients (Papp) of the compounds across the MDCK-MDR1 monolayers (MDCKII cells transfected with human MDR1 cDNA expression plasmid) are measured in apical-to-basal (AB) and basal-to-apical (BA) direction. MDCK-MDR1 cells (6×10^5 cells/cm^2) are seeded on filter inserts (Corning, Transwell, polycarbonate, 0.4 μm pore size) and cultured for 9 to 10 days. Compounds dissolved in DMSO stock solution (1-20 mM) are diluted with HTP-4 aqueous buffer (128.13 mM NaCl, 5.36 mM KCl, 1 mM MgSO4, 1.8 mM CaCl2, 4.17 mM NaHCO3, 1.19 mM Na2HPO4, 0.41 mM NaH2PO4, 15 mM HEPES, 20 mM glucose, pH 7.4) supplemented with 0.25% BSA to prepare the transport solutions (final concentration: 1 or 10 μM, final DMSO<=0.5%). The transport solution is applied to the apical or basolateral donor side for measuring A-B or B-A permeability, respectively. The receiver side contains HTP-4 buffer supplemented with 0.25% BSA. Samples are collected at the start and end of experiment from the donor and at various time intervals for up to 2 hours also from the receiver side for concentration measurement by HPLC-MS/MS (RapidFire High-throughput MS System (Agilent) coupled to QTrap 6500 (AB Sciex) or TSQ Vantage (Thermo Scientific)). Sampled receiver volumes are replaced with fresh receiver solution. Efflux ratio is calculated dividing the Papp (b-a) values by the Papp (a-b) values.

Nav1.6 = Nav1.6 (Homo sapiens, UniProt Q9UQD0); experiment: Nav 1.6 inhibition, IonWorks Quattro electrophysiology; type: cell-based; settings: for inhibition at 1 µM / inhibition at 5 µM: normalized to vehicle control (0%) and maximal inhibition control (100%)
Nav1.6, sequence (Q9UQD0 whole entry): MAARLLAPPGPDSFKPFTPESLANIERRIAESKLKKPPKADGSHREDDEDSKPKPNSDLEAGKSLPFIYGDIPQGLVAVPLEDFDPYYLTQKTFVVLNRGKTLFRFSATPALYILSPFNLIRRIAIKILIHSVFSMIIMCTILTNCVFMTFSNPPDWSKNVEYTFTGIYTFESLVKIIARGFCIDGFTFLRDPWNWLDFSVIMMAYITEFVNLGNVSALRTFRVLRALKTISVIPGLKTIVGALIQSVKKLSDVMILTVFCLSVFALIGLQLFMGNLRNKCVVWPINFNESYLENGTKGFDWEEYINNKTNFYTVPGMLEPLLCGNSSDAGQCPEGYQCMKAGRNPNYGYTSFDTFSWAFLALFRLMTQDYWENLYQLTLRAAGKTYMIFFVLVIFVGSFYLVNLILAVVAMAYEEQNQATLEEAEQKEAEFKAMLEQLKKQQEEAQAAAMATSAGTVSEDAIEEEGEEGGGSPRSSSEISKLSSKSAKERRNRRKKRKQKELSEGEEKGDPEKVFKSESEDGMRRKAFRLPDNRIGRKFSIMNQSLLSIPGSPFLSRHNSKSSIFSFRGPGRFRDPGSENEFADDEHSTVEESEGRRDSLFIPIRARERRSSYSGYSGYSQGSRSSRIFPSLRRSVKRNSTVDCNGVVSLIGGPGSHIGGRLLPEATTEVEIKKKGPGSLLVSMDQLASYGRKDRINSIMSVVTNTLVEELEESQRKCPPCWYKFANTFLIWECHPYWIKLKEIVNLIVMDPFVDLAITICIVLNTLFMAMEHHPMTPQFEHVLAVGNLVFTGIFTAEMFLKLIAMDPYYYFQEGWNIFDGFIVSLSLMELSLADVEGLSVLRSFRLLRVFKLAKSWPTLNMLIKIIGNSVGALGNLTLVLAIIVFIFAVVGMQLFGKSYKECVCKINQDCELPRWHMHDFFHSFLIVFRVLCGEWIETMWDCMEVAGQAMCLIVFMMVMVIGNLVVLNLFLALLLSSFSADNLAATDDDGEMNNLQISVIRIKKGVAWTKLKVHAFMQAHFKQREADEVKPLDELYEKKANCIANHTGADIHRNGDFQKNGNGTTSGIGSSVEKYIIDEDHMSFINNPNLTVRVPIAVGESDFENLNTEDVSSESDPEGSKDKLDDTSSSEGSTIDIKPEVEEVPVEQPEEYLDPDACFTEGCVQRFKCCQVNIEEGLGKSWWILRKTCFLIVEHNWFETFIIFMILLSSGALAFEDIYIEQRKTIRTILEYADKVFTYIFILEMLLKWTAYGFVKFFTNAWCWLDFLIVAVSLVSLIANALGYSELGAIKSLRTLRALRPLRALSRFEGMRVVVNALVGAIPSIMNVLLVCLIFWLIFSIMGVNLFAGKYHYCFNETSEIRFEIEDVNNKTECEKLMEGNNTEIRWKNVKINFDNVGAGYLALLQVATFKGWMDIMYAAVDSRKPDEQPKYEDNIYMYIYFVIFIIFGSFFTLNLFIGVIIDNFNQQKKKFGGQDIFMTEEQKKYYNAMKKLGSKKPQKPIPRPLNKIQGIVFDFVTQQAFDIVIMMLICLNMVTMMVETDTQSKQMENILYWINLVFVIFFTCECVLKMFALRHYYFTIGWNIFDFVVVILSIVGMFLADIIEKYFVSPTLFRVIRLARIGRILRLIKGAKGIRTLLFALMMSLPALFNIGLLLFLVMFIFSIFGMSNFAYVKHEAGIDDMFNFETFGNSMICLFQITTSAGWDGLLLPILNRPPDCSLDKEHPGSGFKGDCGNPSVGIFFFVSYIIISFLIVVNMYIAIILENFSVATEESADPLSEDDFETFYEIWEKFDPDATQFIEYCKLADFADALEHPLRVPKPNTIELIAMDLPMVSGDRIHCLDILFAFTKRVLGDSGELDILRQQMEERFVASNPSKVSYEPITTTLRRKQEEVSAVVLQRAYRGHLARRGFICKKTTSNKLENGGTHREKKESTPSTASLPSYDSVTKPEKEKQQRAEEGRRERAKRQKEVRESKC
Method: Determination of Nav 1.6.Inhibition
IonWorks Quattro electrophysiological platform
The compounds were prepared in DMSO at 300× the final assay concentrations of 1 and 5 μM.
The 300×DMSO stock solutions were transferred into assay plates where 2 μl per well of each 300× stock solution were placed. All assay plates were stored at −80° C. until the day of assay.
On the day of the assay, the appropriate assay plate was thawed at room temperature, centrifuged, and 198 μl of external recording solution was added and mixed thoroughly. This provided a 1:100 dilution. A further 1:3 dilution occurred upon addition to the cells in the IonWorks Quattro electrophysiological platform, giving a 1:300 dilution in total. On each assay plate, at least 8 wells were reserved for vehicle control (0.3% DMSO) and at least 8 wells for each positive control specific to the cell line tested. The positive controls were tested at a maximal blocking and an approximate IC50 concentration. As positive control Lidocaine at concentrations of 30 and 1000 μM was used.
The solutions for recording Nav1.6 currents were as follows:
Amphotericin B was used to obtain electrical access to the cell interior at a final concentration of 200 μg/ml in internal recording solution.
State-dependent inhibition: Sodium channels when held at depolarized potential or long test pulse, the channels open and inactivate and then stay inactivated until the membrane potential is stepped back to hyperpolarized potentials, when the inactivated channels recover from inactivation into closed state.
Cells were held at −120 mV. In order to completely inactivate the sodium channels (pulse 1), the cells were pulsed to +0 mV for 2500 ms and stepped back to −120 mV for 10 ms (to completely recover from inactivation, however channels that had drugs bound to them will not recover from inactivation) before stepping to +0 mV for 20 ms (pulse 2).
Both the positive and vehicle control data associated with each cell line assayed are shown below as an example. The mean is shown for each positive and negative control as solid symbol with the total number of individual well replicates given next to the solid symbol. In addition, the individual data of each well are shown on the graph as open symbols so that the variation about the mean value can be readily assessed.
Shown below are the assay controls for the Nav1.6 IonWorks Quattro assay.
Tables 3 and 4 show the normalized percentage inhibition of Nav1.6 channel. […] (see also the figure Assay Control Results above).

NMDA NR1/NR2B receptor [2] = target: T2, NMDA NR1/NR2B receptor (Homo sapiens, UniProt Q05586+Q13224); experiment: In vitro NMDA NR1/NR2B cell assay (FLIPR, intracellular calcium induced by glycine/glutamate); type: cell-based; settings: HEK293 cells expressing NMDA NR1/NR2B; 20 μM glycine, 1 μM glutamate; read-out: IC50 (in vitro NR2B affinity, FLIPR assay)
T2 construct: host or cells: HEK293, tetracycline-inducible expression
T2 sequence (Q13224 27-1484, other chains not shown): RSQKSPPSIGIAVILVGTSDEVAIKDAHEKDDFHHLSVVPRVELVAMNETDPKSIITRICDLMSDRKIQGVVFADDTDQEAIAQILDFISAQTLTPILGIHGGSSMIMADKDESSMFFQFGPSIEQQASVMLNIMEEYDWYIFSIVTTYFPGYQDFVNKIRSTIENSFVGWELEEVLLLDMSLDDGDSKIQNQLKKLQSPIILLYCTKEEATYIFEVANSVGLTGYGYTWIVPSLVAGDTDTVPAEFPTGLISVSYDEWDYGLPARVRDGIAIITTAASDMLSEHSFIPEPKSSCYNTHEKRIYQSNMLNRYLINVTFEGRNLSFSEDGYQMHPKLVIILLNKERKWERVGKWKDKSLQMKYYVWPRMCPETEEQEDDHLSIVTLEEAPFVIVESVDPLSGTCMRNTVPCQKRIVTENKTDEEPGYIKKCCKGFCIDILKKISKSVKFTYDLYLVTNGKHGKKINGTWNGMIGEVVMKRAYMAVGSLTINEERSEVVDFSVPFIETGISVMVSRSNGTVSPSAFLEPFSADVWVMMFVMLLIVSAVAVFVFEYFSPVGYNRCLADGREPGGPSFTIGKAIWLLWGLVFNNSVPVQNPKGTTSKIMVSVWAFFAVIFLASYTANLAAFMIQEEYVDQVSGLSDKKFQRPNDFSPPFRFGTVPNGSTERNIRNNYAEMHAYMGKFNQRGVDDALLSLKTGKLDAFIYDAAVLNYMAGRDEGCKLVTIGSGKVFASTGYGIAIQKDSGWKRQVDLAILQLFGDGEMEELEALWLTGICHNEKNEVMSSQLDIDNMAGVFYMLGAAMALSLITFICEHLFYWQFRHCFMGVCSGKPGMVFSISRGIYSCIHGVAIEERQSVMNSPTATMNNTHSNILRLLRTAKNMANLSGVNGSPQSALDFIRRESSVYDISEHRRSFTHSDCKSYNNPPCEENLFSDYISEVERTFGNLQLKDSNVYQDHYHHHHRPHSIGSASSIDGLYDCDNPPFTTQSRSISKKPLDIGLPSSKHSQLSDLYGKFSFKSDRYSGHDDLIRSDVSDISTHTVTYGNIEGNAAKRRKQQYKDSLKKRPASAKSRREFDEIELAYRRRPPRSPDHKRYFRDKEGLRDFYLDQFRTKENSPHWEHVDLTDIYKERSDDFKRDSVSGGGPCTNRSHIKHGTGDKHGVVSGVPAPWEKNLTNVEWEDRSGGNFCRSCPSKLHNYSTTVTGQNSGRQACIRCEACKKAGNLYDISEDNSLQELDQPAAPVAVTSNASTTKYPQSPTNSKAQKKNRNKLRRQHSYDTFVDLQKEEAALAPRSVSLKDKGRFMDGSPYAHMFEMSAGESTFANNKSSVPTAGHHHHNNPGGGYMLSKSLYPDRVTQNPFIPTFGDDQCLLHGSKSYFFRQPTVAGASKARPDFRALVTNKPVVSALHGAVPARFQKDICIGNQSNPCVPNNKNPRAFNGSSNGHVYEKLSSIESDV
Method: (§1) A human HEK293 cell line with tetracyclin-inducible expression of NMDA NR1/NR2B receptor was used as a test system for compound efficacy and potency. The cell line was purchased from ChanTest, Catalog #CT6121. Compound activity was determined by measuring the effect of compounds on intracellular calcium concentration induced by glycine/glutamate agonism in a FLIPRtetra system (Molecular Devices).
(§2) The cells were obtained as frozen cells in cryo-vials and stored until use at −150° C. Cells were grown in culture medium (DMEM/F12, 10% FBS, 5 μg/mL Blasticidin, 150 μg/mL Zeozin, 500 μg/mL Geneticin). […] For sub-culturing the cells were detached from flasks by Versene. For the assay, cells were detached, washed twice with induction medium (DMEM/F12 without glutamine, 10% FBS, 2 μg/mL Tetracycline, 2 mM Ketamine) and seeded to 384 well pure coat amine plates (Becton Dickinson, 50000 cells per well in 50 μl) 48 h prior to assay in induction medium.
(§3) The test compounds were dissolved in 100% DMSO at a concentration of 10 mM and in a first step diluted in DMSO to a concentration of 5 mM, followed by serial dilution steps in 100% DMSO. Dilution factor and number of dilution steps may vary according to needs. Typically 8 different concentrations by 1:5 dilutions were prepared in duplicate, further intermediate dilutions (1:37.5) of the substances were carried out with aqueous assay buffer (137 mM NaCl, 4 mM KCl, 1.8 mM CaCl2, 10 mM HEPES, 10 mM Glucose, pH 7.4) resulting in a compound concentration 3 times above the final test concentration and DMSO at 2.7% resulting in 0.9% final DMSO concentration in the assay.
(§4) At the assay day cells were washed 3× with assay buffer (as described above), 10 μL buffer remained in the wells after washing. 10 μL Ca kit loading buffer (AAT Bioquest; prepared from the kit containing the following components: Component A: Fluo-8 NW dissolved in 200 μL DMSO and 20 μl of this solution are mixed with 10 ml buffer prepared out of component B and C, Component B: 10× Pluronic® F127 Plus diluted 1:10 in component C, Component C: HHBS (Hanks with 20 mM Hepes) was added to the cells and the plates were incubated with lid for 60 minutes at room temperature. 20 μl assay buffer containing 60 μM glycine (20 μM final) and 3 μM glutamate (1 μM final) was added to column 1-23, column 24 got assay buffer without glycine/glutamate to serve as negative unstimulated control. Fluorescence (indicating the calcium influx as a result of the NR1/NR2B ion channel activation) was read on the FLIPRtetra device for 60 seconds to monitor the glutamate induced effects. After 2 minutes 20 μL of compound dilution prepared as described above or controls (row 1-22) in assay buffer were carefully added to the wells. […] The average of 2 measurements at 5 minutes and […] 10 seconds after compound addition is calculated and further used for IC50 calculations. Each assay microtiter compound dilution plate contained wells (in column 23 or 24) with DMSO controls instead of compound as controls for glycine/glutamate induced fluorescence (high controls) and wells with 1 μM of a reference NR2B NAM as low controls (Compound 22; reference: Layton, Mark E et al, ACS Chemical Neuroscience 2011, 2(7), 352-362).
(§5) The output file of the reader contains the well number and measured average fluorescence units. For data evaluation and calculation, the measurement of the low control was set as 0% control and the measurement of the high control was set as 100% control. The IC50 values were calculated using the standard 4 parameter logistic regression formula. Calculation: [y=(a−d)/(1+(x/c)^b)+d], a=low value, d=high value; x=conc M; c=IC50 M; b=slope.

NMDA NR1/NR2B receptor [3] = target: T3, NMDA NR1/NR2B receptor (Homo sapiens, UniProt Q13224); experiment: as above; type: cell-based; settings: see Table 2
T3 construct: host or cells: HEK293, tetracycline-inducible expression
T3 sequence (Q13224 27-1484, other chains not shown): as above
Method: as §1, §2, §3, §4, §5

CNC(=O)C1CN(Cc2ccc(Oc3ccc(F)cc3)nc2)CCO1 (centres unmarked) [Example 14]
half-life at 1 μM [1]: > 2.17 h
Papp A→B at 2 h (MDR1 (P-gp)): 92 ×10⁻⁶ cm/s
efflux ratio at 2 h (MDR1 (P-gp)): 0.4
inhibition at 1 µM (Nav1.6): 0.7%
inhibition at 5 µM (Nav1.6): 0.4%

CNC(=O)C1CN(Cc2ccc(Oc3ccc(Cl)cc3F)nc2)CCO1 (centres unmarked) [Example 15]
half-life at 1 μM [1]: > 2.17 h
Papp A→B at 2 h (MDR1 (P-gp)): 42 ×10⁻⁶ cm/s
efflux ratio at 2 h (MDR1 (P-gp)): 0.7
inhibition at 1 µM (Nav1.6): -17.4%
inhibition at 5 µM (Nav1.6): -1.4%

CNC(=O)C1CN(Cc2ccc(Oc3ccc(Cl)cc3)nc2)CCO1 (centres unmarked) [Example 16]
half-life at 1 μM [1]: > 2.17 h
Papp A→B at 2 h (MDR1 (P-gp)): 51 ×10⁻⁶ cm/s
efflux ratio at 2 h (MDR1 (P-gp)): 0.7
inhibition at 1 µM (Nav1.6): -0.5%
inhibition at 5 µM (Nav1.6): 7.1%

CNC(=O)[C@@H]1CN(Cc2ccc(Oc3ccc(F)cc3F)cn2)CCO1 [Example 31]
IC50 (NMDA NR1/NR2B receptor [2]): 275 nM
half-life at 1 μM [1]: > 2.17 h
Papp A→B at 2 h (MDR1 (P-gp)): 63 ×10⁻⁶ cm/s
efflux ratio at 2 h (MDR1 (P-gp)): 0.7

CNC(=O)[C@@H]1CN(Cc2ccc(Oc3ccc(Cl)cc3F)cn2)CCO1 [Example 32]
IC50 (NMDA NR1/NR2B receptor [2]): 255 nM
half-life at 1 μM [1]: > 2.17 h
Papp A→B at 2 h (MDR1 (P-gp)): 80 ×10⁻⁶ cm/s
efflux ratio at 2 h (MDR1 (P-gp)): 0.5

CNC(=O)[C@@H]1CN(Cc2ccc(Oc3ccccc3F)cn2)CCO1 [Example 33]
IC50 (NMDA NR1/NR2B receptor [2]): 366 nM
half-life at 1 μM [1]: > 2.17 h
Papp A→B at 2 h (MDR1 (P-gp)): 71 ×10⁻⁶ cm/s
efflux ratio at 2 h (MDR1 (P-gp)): 0.5

CNC(=O)[C@@H]1CN(Cc2ccc(Oc3ccc(C)cc3F)cn2)CCO1 [Example 34]
IC50 (NMDA NR1/NR2B receptor [2]): 133 nM
half-life at 1 μM [1]: > 2.17 h
Papp A→B at 2 h (MDR1 (P-gp)): 58 ×10⁻⁶ cm/s
efflux ratio at 2 h (MDR1 (P-gp)): 0.8

CCNC(=O)C1CN(Cc2cccc(Oc3ccccc3)c2)CCO1 (centres unmarked) [Example 100 of WO2015/130905, reference compound]
activity on the NR1-NR2B ion channel (in words) (NMDA NR1/NR2B receptor [3]): do not show any activity

O=C(NCc1ccccn1)C1CN(Cc2cccc(Oc3ccccc3)c2)CCO1 (centres unmarked) [Example 105 of WO2015/130905, reference compound]
activity on the NR1-NR2B ion channel (in words) (NMDA NR1/NR2B receptor [3]): do not show any activity

COCCNC(=O)C1CN(Cc2cccc(Oc3ccccc3)c2)CCO1 (centres unmarked) [Example 107 of WO2015/130905, reference compound]
IC50 (NMDA NR1/NR2B receptor [2]): > 9260 nM
activity on the NR1-NR2B ion channel (in words) (NMDA NR1/NR2B receptor [3]): do not show any activity
inhibition at 1 µM (Nav1.6): -8.5%
inhibition at 5 µM (Nav1.6): 13.1%
significant inhibition of the Nav 1.6 channel (in words) (Nav1.6; at 1 and 5 μM): do not show any significant inhibition
